As usually defined, the pEC50 is the negative decadic logarithm of the EC50, by convention in mol/L. Broadly, the Emax is the maximal effect, on the per cent scale that the assay sets.

From ChEMBL document CHEMBL4739717, “Methods of treating cartilage disorders through inhibition of clk and dyrk” (2020) come the findings set out here.

The nature of test [1]: Inhibition of IL1-beta induced MMP3 expression levels in human chondrocytes assessed as MMP3 levels incubated for 2hrs followed by IL1-beta stimulation and measured after overnight incubation by LANCE assay. The conditions noted are these: Chondrocyte. The format is functional, cell-based.
Test [2] is described as follows: Induction of chondrogenesis in human MSC assessed as maximum activity at 2700 nM incubated for 6 days by rhodamine B and Nile red staining based imaging analysis relative to control. The format is functional. The conditions noted are these: BMMSC, 144 h, time 6 day.
Test [3] concerns the target Dual specificity tyrosine-phosphorylation-regulated kinase 1A (Homo sapiens, UniProt Q13627). Description: Inhibition of recombinant DYRK1A (unknown origin) using Ser/Thr 18 peptide as substrate incubated for 1 hr in presence of ATP by FRET assay.
The target of test [4] is Dual specificity protein kinase CLK2 (Homo sapiens, UniProt P49760). Description: Inhibition of recombinant CLK2 (unknown origin) using Ser/Thr 6 peptide as substrate incubated for 1 hr in presence of ATP by FRET assay.
Sequence of Dual specificity protein kinase CLK2 (P49760 whole entry): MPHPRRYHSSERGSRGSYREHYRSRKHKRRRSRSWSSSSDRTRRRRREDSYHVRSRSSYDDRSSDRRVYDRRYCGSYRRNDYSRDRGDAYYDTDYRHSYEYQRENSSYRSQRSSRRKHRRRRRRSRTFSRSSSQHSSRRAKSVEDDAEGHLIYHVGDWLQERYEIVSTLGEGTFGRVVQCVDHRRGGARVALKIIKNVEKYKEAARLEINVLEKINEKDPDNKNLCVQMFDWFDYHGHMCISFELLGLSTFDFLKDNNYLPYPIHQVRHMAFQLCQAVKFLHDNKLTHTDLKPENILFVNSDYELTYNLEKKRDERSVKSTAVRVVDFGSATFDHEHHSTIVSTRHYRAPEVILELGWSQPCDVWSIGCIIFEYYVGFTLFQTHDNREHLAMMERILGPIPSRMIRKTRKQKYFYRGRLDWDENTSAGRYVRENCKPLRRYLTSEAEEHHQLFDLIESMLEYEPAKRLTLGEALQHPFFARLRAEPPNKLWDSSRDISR
In test [5] the target is Dual specificity protein kinase CLK3 (Homo sapiens, UniProt P49761). Description: Inhibition of recombinant CLK3 (unknown origin) using Ser/Thr 18 peptide as substrate incubated for 1 hr in presence of ATP by FRET assay.
Sequence of Dual specificity protein kinase CLK3 (P49761 whole entry): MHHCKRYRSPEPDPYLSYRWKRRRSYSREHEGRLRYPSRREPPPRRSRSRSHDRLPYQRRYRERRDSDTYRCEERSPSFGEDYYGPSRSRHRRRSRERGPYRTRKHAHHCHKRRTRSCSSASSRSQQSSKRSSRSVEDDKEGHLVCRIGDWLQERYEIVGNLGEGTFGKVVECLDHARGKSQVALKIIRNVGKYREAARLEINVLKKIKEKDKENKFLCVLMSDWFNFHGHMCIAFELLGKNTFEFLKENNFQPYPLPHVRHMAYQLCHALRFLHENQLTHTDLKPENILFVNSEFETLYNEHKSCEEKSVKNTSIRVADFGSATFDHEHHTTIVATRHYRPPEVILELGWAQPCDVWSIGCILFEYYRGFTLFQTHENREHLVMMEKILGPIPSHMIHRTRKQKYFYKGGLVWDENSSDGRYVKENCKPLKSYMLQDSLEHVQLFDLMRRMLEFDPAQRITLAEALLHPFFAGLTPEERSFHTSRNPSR
Test [6] is described as follows: Induction of chondrogenesis in human MSC assessed as maximum activity at 100 nM incubated for 6 days by rhodamine B and Nile red staining based imaging analysis relative to control. Format: functional. Conditions: BMMSC, 144 h, time 6 day.
Test [7] in a line: Induction of chondrogenesis in human MSC assessed as incubated for 6 days by rhodamine B and Nile red staining based imaging analysis. The format is functional. Conditions: bmmsc.
The nature of test [8]: Effect on Wnt signaling pathway in human SW480 cells harbouring TCF/LEF luciferase reporter gene and SP5-Luc reporter gene incubated for 36 to 48 hrs by luminescence assay. Format: cell-based. (In general: In a reporter assay the amount or activity of a reporter protein is the signal.)
The nature of test [9]: Inhibition of IL1-beta induced MMP3 expression levels in human chondrocytes assessed as MMP3 levels incubated for 2hrs followed by IL1-beta stimulation and measured after overnight incubation by LANCE assay relative to control. Format: functional, Chondrocyte. Background: Time-resolved FRET reads energy transfer from a long-lived donor to a nearby acceptor.
The nature of test [10]: Induction of chondrogenesis in human MSC assessed as maximum activity at 10 nM incubated for 6 days by rhodamine B and Nile red staining based imaging analysis relative to control. The format is functional. Conditions: BMMSC, 144 h, time 6 day.
For test [11], the system named is Chondrocyte. As to the kind of experiment: Inhibition of IL1-beta induced MMP3 expression levels in human chondrocytes assessed as MMP3 levels incubated for 2hrs followed by IL1-beta stimulation and measured after 24 hrs by qRT-PCR analysis. The format is functional. Conditions: time 26.0 hrs.
For test [12], the system named is Chondrocyte. Description: Inhibition of IL1-beta induced MMP-13 expression levels in human chondrocytes assessed as MMP-13 levels incubated for 2hrs followed by IL1-beta stimulation and measured after 24 hrs by qRT-PCR analysis. Format: functional. The conditions noted are these: time 26.0 hrs. For orientation: In qPCR the cycle at which signal appears reflects the starting amount.

A short description of test [13]: Induction of chondrogenesis in human MSC assessed as maximum activity at 20.58 nM incubated for 6 days by rhodamine B and Nile red staining based imaging analysis relative to control. Format: functional. The conditions noted are these: BMMSC, 144 h, time 6 day.
Test [14] can be described thus: Induction of chondrogenesis in human MSC assessed as maximum activity at 300 nM incubated for 6 days by rhodamine B and Nile red staining based imaging analysis relative to control. The conditions noted are these: BMMSC, 144 h, time 6 day. Format: functional.

pEC50: −log10 of the molar value. Activity calls are given as the source filed them. No cut-off for these calls is given here. Some results are limits rather than exact numbers.

As for `Cn1cncc1-c1ccc2cnc(NC(=O)c3ccc(F)cc3)cc2c1`, in test [1], the pEC50 was 5.52. Further, the Emax at 2.7 µM in test [2] was determined as 24.9%.
Consider `Cc1n[nH]c2ccc(-c3cncc(O[C@H]4CCNC[C@@H]4F)n3)cc12`, for which the pEC50 in [3] was 7.96; in [4], 9.00; in test [5], 5.76; in test [7], 7.00; in test [8], 6.17. For the same molecule, the Emax at 0.1 µM in [6] stood at 44.9%.
With `Cn1cc(-c2ccc3cnc(NC(=O)c4cnc5ccccc5c4)cc3c2)cn1`, the pEC50 is 8.40 in test [4], 7.18 in [5] and 7.72 in [1]. In addition, the Imax in [9] was 41.2%.
On to `CN1CCN(c2nccc3[nH]c(-c4n[nH]cc4/C=C/c4cncc(F)c4)nc23)CC1`, for which the pEC50 in test [3] is 8.00; in test [1] it was 5.52; in test [8] it was 6.49. Further, in test [10], the Emax at 0.01 µM is 39%. Also, the result in the test on Chondrocyte [11] and in the test with Chondrocyte [12] was inactive.
Take `O=C(Nc1ccc(CN2CCCC2)cc1)c1n[nH]cc1/C=C/c1cccnc1`: the pEC50 in test [3] is 8.40; in [1], 8.43; in test [7] it was 6.05; in test [8], 6.01. For the same molecule, the maximal response (Emax) at 2.7 µM in test [2] is 194%.
In the case of `Oc1cncc(-c2ccc3[nH]nc(-c4nc5c(-c6cccc(F)c6)ccnc5[nH]4)c3n2)c1`, the pEC50 is 7.37 in [3], 8.64 in test [7] and 6.43 in test [8]. Moreover, the Emax at 0.02058 µM in [13] worked out at 59.3%.
In the case of `Cc1nnc(-c2ccc3cnc(NC(=O)c4ccnc(C5=CCN(C)CC5)c4)cc3c2)s1`, the pEC50 is 8.70 in test [4], 7.85 in test [5] and 6.84 in [1]. The Imax in test [9] stood at 35.3%.
On to `Cc1n[nH]c2ccc(-c3cncc(O[C@H]4CCNCC4(F)F)n3)cc12`, for which the pEC50 in test [3] is 8.70; in [4], 8.52; in [5], 6.50; in test [7] it was 6.52; in test [8] it was 6.64. Besides, the Emax at 0.3 µM in [14] came to 82.1%.
For the molecule `CN1CCC(Oc2ccc(C(=O)Nc3cc4cc(-c5cnn(C)c5)ccc4cn3)cc2)CC1`, in test [1], the pEC50 was 5.52. Further, the Emax at 0.01 µM in test [10] came out at 25.4%. In addition, the result in the test with Chondrocyte [11] was inactive.
Regarding `CC(C)N1CCC(Oc2cc(C(=O)Nc3cc4cc(-c5cnn6c5CCNC6)ccc4cn3)ccn2)CC1`, the pEC50 in test [3] is 7.96; in test [1], 7.12. The outcome with Chondrocyte [11] was inactive.
As to `CN1CCN(c2cc(CC(=O)Nc3cc4cc(-c5cnn(C)c5)ccc4cn3)ccn2)CC1`, the pEC50 in test [4] was 8.00; in [5], 7.11; in [1], 5.98. Further, in test [9], the Imax is listed as 100%.
For the molecule `O=C(Nc1cncc(-c2ccc3[nH]nc(-c4cc5cnccc5[nH]4)c3c2)c1)C1CCCCC1`, the pEC50 is 8.70 in [3], 8.17 in test [1], 7.52 in [7] and 6.55 in test [8]. Besides, the Imax in test [9] was found to be 100%. The Emax at 2.7 µM in test [2] came out at 155%.
As to `C[C@@H]1CN(c2ccc(NC(=O)c3n[nH]c4ccc(-c5cncc(CN6CCCCC6)c5)cc34)cn2)C[C@H](C)O1`, the Emax at 2.7 µM in test [2] came to 129%. Further, the pEC50 in test [7] was 5.57; in test [8], 8.55.
Consider `CC(C)Nc1cncc(-c2ccc3[nH]nc(-c4nc5c(-c6cc(F)cc(NCCN(C)C)c6)cncc5[nH]4)c3n2)c1`, for which the negative logarithm of the EC50 (pEC50) in test [3] is 8.05; in [1], 5.52; in [7] it was 6.52; in test [8], 5.78. Moreover, in [2], the maximal effect (Emax) at 2.7 µM was 96.8%.
Turning to `Fc1cccc(-c2cncc3[nH]c(-c4n[nH]c5ncc(-c6cccnc6)cc45)nc23)c1`, the pEC50 in test [3] is 7.92; in test [4], 8.30; in [5], 7.32; in test [7], 7.00; in test [8], 8.22. For the same molecule, the Emax at 0.3 µM in test [14] was 157%.
`Cc1ccc(C(=O)Nc2c[nH]nc2C(=O)Nc2ccc(OCCN3CCCC3)nc2)cn1`: the pEC50 in test [3] was 7.57; in test [4], 7.62; in test [5] it was 5.43; in test [1], 6.09; in [8], 6.93. In addition, the Imax in test [9] turned out to be 23.7%.
`CCC(=O)Nc1cncc(-c2ccc3[nH]nc(-c4nc5c(N6CCCCC6)ccnc5[nH]4)c3n2)c1`: the values for the pEC50 in [3] and in test [8] were 7.05 and less than 5.00, respectively. The Emax at 0.02058 µM in test [13] turned out to be 38.3%.
Regarding `CN1CCN(c2ccc(NC(=O)c3n[nH]c4ccc(-c5cncc(NC(=O)c6c(F)cccc6F)c5)cc34)cn2)CC1`, the pEC50 in test [3] is 8.52; in [4], 9.00; in [5], 7.09; in [1], 5.52; in test [8], 6.65. The Imax in [9] worked out at 54.9%.
With `CN1CCN(c2nccc3[nH]c(-c4n[nH]c5ncc(-c6cncc(CN7CCCCC7)c6)cc45)cc23)CC1`, the pEC50 was 7.96 in [3], 8.05 in [4], 5.72 in [5] and less than 5.00 in [8]. Besides, the Emax at 0.3 µM in [14] is 50.7%.
Consider `O=C(Nc1cc2cc(-c3cncc(N[C@H]4CCNC[C@@H]4F)n3)ccc2cn1)C1CC1`, for which the pEC50 in test [4] was 9.00; in [5], 7.96; in [1], 5.52; in test [7] it was 5.57; in test [8], 8.02. The Emax at 2.7 µM in test [2] was 68%.
Take `CN1CCN(c2cc(Nc3ncc4c(-c5ccc6ncccc6c5)c[nH]c4n3)ccn2)CC1`: the pEC50 in test [3] was 9.00; in test [1] it was 5.00; in test [7] it was 7.52; in test [8] it was 6.55. Besides, in test [10], the Emax at 0.01 µM came to 73.4%. The outcome with Chondrocyte [11] and in the test on Chondrocyte [12] was inactive.
Consider `CCNCc1cncc(-c2ccc3[nH]nc(-c4nc5c(-c6cc(F)cc(NCCN(C)C)c6)ccnc5[nH]4)c3n2)c1`, for which the pEC50 was 8.10 in [3], 7.69 in test [7] and less than 5.00 in test [8]. Moreover, the Emax at 0.02058 µM in [13] stood at 149%.
In the case of `Cn1cc(-c2ccc3cnc(NC(=O)c4ccc5c(cnn5C)c4)cc3c2)cn1`, the negative-log EC50 (pEC50) in [4] is 8.52; in test [5], 7.31; in [1], 5.52. Besides, the Imax in test [9] came to 46.9%.
Consider `Cc1cn(-c2cncc3[nH]c(-c4n[nH]c5ccc(-c6cncc(NC(=O)C(C)(C)C)c6)nc45)nc23)cn1`, for which the pEC50 in test [3] is 8.70; in test [1] it was 5.94; in test [7], 7.00; in test [8] it was less than 5.00. The Emax at 2.7 µM in test [2] was determined as 150%.
For the molecule `CC(C)NC(=O)c1n[nH]c2ccc(-c3cncc(CN4CCC(F)(F)CC4)c3)cc12`, the negative logarithm of the EC50 (pEC50) in test [1] is 8.10; in test [7], 5.57; in [8], 7.33. The maximal response (Emax) at 2.7 µM in test [2] is 104%.
With `NC1CN(c2cncc(-c3ccc4[nH]nc(-c5nc6ccncc6[nH]5)c4c3)n2)C1`, the pEC50 in [3] was 8.52; in test [4], 9.00; in test [5], 6.74; in test [1], 7.68; in test [8] it was 6.46. For the same molecule, the Imax in test [9] is 61.5%.
With `Oc1cncc(-c2ccc3[nH]nc(-c4nc5c(-c6cccc(F)c6)ccnc5[nH]4)c3c2)c1`, the pEC50 in test [3] is 7.92; in test [4], 7.77; in test [5], 7.35; in [8] it was 7.96. The Emax at 0.1 µM in test [6] came out at 52.2%.
With `O=C(Nc1ccc(N2CCC(F)(F)C2)nc1)c1n[nH]cc1C#Cc1cccnc1`, the pEC50 was 7.68 in [3]; 7.49 in test [4]; less than 5.00 in [5]; 5.52 in [1]; less than 5.00 in test [8]. For the same molecule, in [9], the Imax is on record as 88.5%.
For `CC(C)Oc1cncc(C(=O)Nc2c[nH]nc2C(=O)Nc2ccc(OC3CCN(C)CC3)nc2)c1`, the pEC50 was 8.40 in test [3], 8.82 in test [1], 5.57 in [7] and 7.04 in [8]. Besides, the Emax at 2.7 µM in [2] stood at 140%.
Take `CN1CCCn2cc(nn2)-c2nccc3[nH]c(nc23)-c2n[nH]c3ccc(cc23)-c2cncc(c2)C1`: the pEC50 is 8.40 in [3], 5.42 in test [1], 8.00 in test [7] and 6.47 in [8]. The Emax at 0.01 µM in test [10] amounted to 181%. In addition, the outcome in the test on Chondrocyte [11] and with Chondrocyte [12] was inactive.
On to `CN1CCN(c2cc(C(=O)Nc3cc4cc(-c5cnn(C)c5)ccc4cn3)ccn2)CC1`, for which, in test [10], the Emax at 0.01 µM was determined as 27.1%. The outcome in the test with Chondrocyte [12] was inactive.
